The subject of this assay is P. falciparum 3D7 growth, pLDH absorbance. As to the kind of experiment: blood-stage malaria parasite growth potency – strain 3D7, dose response (AID 2305).
What is called IC50 is the point on the concentration scale where inhibition reaches its midpoint. A lower IC50 goes with greater potency in that assay. With `O=C(/C=C/c1ccc(Cl)c(Cl)c1)NCc1ccc(CN2CCC(c3c[nH]c4ccccc34)CC2)cc1`, the IC50 worked out at 710 nM.
Under `COc1cc(C(F)(F)F)c2cc(CNCCCNc3nc4ccccc4[nH]3)[nH]c2c1` stands 310 nM.
Under `CN1CCN(c2ccnc3ccc(NC(=O)Nc4ccc(Cl)c(Cl)c4)cc23)CC1` stands 880 nM; under `O=C(Nc1cccc(OC2CCN(Cc3ccccc3)CC2)c1)c1ccc([N+](=O)[O-])cc1`, 660 nM; under `O=C(NC1CCN(Cc2ccccc2O)C1)c1ccc(Cl)c(Cl)c1` (configuration not stated), 890 nM.
For `COc1ccc2nccc(NN=Cc3cccc(F)c3)c2c1` the value was 750 nM; for `CC(C)CCNC(=O)C1Cc2c([nH]c3cc(Br)ccc23)C2(CCN(Cc3ccccc3)CC2)N1` (configuration not stated), 790 nM.
In the case of `O=C(C=Cc1ccc(Cl)c(Cl)c1)NCCCCCN1CCC(c2[nH]nc3ccccc23)CC1`, the IC50 is 640 nM.
Take `CN(C)CC(O)C(c1ccccc1)c1cccc(Br)c1` (configuration not stated): the IC50 was 160 nM.
Compound `COc1ccc(OC)c(NC(=O)CSc2nc(-c3ccccc3Cl)ns2)c1` yielded an IC50 of 830 nM.
Under `O=C(Nc1ccc(C(=O)OC[C@@H]2CCCN3CCCC[C@H]23)cc1)c1ccc(Cl)c(Cl)c1` stands 720 nM; under `CCOc1cc(C=NNc2nc3ccccc3[nH]2)ccc1OCc1ccc([N+](=O)[O-])cc1`, 1000 nM; under `CCOc1c(Cl)cc(Cl)cc1CNCCCNc1nc2ccccc2[nH]1`, 830 nM.
Under `O=c1cc(NCCCNCc2sc(Br)c(Br)c2Br)[nH]c2ccccc12` stands 1010 nM; under `COc1ccccc1CCN(C)CCN1CCC(NC(=O)c2ccc(-c3ccc(C(F)(F)F)cc3)cc2)CC1`, 1030 nM; under `O=C(Nc1ccc2c(c1)OCO2)NC1CCN(c2ccnc(NCc3ccc(F)cc3)n2)CC1`, 940 nM.
`CC(C)(C)Nc1cc(C2CC2)nc(-c2ccccn2)n1` had an IC50 of 680 nM.
Under `Nc1nccc2ccc(-c3cccnc3)cc12` stands 420 nM; under `O=C(C=Cc1ccc(F)cc1)N1CCN(S(=O)(=O)c2ccc(Cl)cc2)CC1`, 630 nM.
`COc1ccc(Nc2ncc3c(-c4cccc(NC(=O)Cc5cccc(F)c5)c4)c[nH]c3n2)cc1OC` had an IC50 of 570 nM.
As for `Cc1cc(CNCCCCCCNCc2cccc([N+](=O)[O-])c2)ccc1O`, the IC50 was found to be 720 nM.
For `Cc1cc(N2CCCC2)nc(Nc2ccc(NC(=O)c3ccccc3F)cc2)n1` the value was 920 nM; for `COc1ccc(NC(=O)c2ccc(OCCCCCCCOc3ccc(C(=O)Nc4ccc(OC)c(N5CCN(C)CC5)c4)cc3)cc2)cc1N1CCN(C)CC1`, 600 nM; for `O=C(NCc1ccc(S(=O)(=O)N2CCC(CN3CCC(c4c[nH]c5ccccc45)CC3)CC2)s1)c1ccccc1`, 840 nM.
For the compound `Cn1cnc2c(Nc3ccncc3)nc(-c3ccc4ccccc4c3)nc21`, the IC50 was 870 nM.
For `CCNc1cc(C(=O)N[C@@H](Cc2ccccc2)[C@H](O)CNC(C)(C)Cc2ccccc2)cc(N2CCCC2=O)c1` the value was 260 nM; for `COc1ccc2nc(/N=C(/N)NC(=O)Nc3ccccc3)nc(C)c2c1`, 1280 nM.
`Cc1cc(NN=CC=Cc2ccccc2)c2ccccc2n1` yielded an IC50 of 760 nM.
In turn, `NS(=O)(=O)c1cccc(Br)c1` yielded an IC50 of 890 nM.
Under `O=C1COc2ccccc2N1CCN1CCC(NCc2ccc(-c3cccs3)cc2)CC1` stands 1430 nM.
In the case of `N#Cc1ccc(NC(=O)c2ccc(C(=O)NCCCCN3CCC(c4ccc5c(c4OCCOC4CCCCO4)CCCC5)CC3)cc2)cc1` (configuration not stated), the IC50 came to 580 nM.
For `COc1ccc2c(c1)[nH]c1c(/C=C/c3ccc([N+](=O)[O-])cc3)nccc12` the value was 860 nM; for `O=C(Nc1ccc(Cl)cc1)N[C@H]1CCN(Cc2ccc(OCCCN3CCCCC3)cc2)C1`, 670 nM.
As to `Cc1ccc(NC(=O)c2ccc(CN3CCCN(Cc4cccc(O)c4)CC3)cc2)cc1`, the IC50 was 740 nM.
For `CC(C)(C)N1CCC(N(Cc2ccc(-c3ccc(C(F)(F)F)cc3)cc2)C(=O)Cn2c(CCc3cccc(F)c3F)cc(=O)c3ccccc32)CC1` the value was 790 nM.
The compound `COc1cccc(CC(=O)N2CCC(n3c(C)nc4ccc(F)cc43)CC2)c1` came in with an IC50 of 910 nM.
`CC(C)C[C@H](NC(=O)c1ccc(OCCN2CCOCC2)cc1)C(=O)N[C@H](/C=N/NC(=O)c1ccccc1)CCc1ccccc1` came in with an IC50 of 60 nM.
Under `Cc1cc(CN2CC[C@H](NC(=O)c3ccc(Cl)c(Cl)c3)C2)ccc1OCCCN(C)C` stands 840 nM; under `COc1ccc(CCON2C(N)=NC(N)=NC2(C)C)cc1OC`, 10 nM; under `CC(=O)c1ccc(-c2ccc(C(=O)NCCCCN3CCC(c4ccc5c(c4O)CCCC5)CC3)cc2)cc1`, 760 nM.
Under `COc1ccc2ncc(OC)c(CCN3CC[C@@H](NCc4ccc5c(n4)NC(=O)CS5)[C@H](O)C3)c2n1` stands 830 nM.
In the case of `Cc1cc(CN2CCC(C(=O)Nc3ccc(-c4nc5ccccc5[nH]4)cc3)CC2)oc1C`, the IC50 is 1450 nM.
For `O=C(NC1CCC(CN2CCC(c3c[nH]c4ccccc34)CC2)CC1)c1cnn(-c2ccccc2)c1-c1ccccc1Cl` (configuration not stated) the value was 180 nM.
For `Cc1ccccc1C(=O)Nc1cccc(-c2nc3ncccn3c2C)c1` the value was 760 nM.
For `CCCC[C@H](NC(=O)O[C@H](COc1ccc(OCc2ccccc2)cc1)C(C)(C)C)C(=O)C(=O)Nc1ccn[nH]1` the value was 990 nM; for `NC(=O)c1cccc(C(=O)Nc2cccc(-c3cccc(-c4nc5ccc(F)cc5[nH]4)c3)c2)c1`, 250 nM.
The compound `CC(C)C(NC(=O)Cc1cccc2ccccc12)C(=O)Nc1cccc(C#N)c1` (configuration not stated) showed an IC50 of 660 nM.
For `CN(C)CCOc1ccnc2ccc(NC(=O)Cc3ccc(-c4ccncc4)c4ccccc34)cc12` the value was 280 nM; for `CCC(=O)OC(CCN(CC)CC)(c1ccccc1)c1ccccc1`, 370 nM.
Compound `CN1CCN(c2ccc(Nc3c4ccccc4nc4ccccc34)cc2)CC1` returned an IC50 of 640 nM.
For `C=CCn1c(=N)c(C(=O)NCc2ccc(F)cc2)cc2c(=O)n3cccc(C)c3nc21` the value was 1170 nM; for `CC(C)NCc1cccc(-c2cccc(NC(=O)c3cccc(Cl)c3)c2)c1`, 590 nM.
`COC(=O)c1cccc(CNCc2cccc(-c3ccc(-c4nc5ccccc5[nH]4)cc3)c2)c1` showed an IC50 of 350 nM.
`NCCCNc1nccc(N2CCc3ncnc(Nc4ccc(OCc5cccc(F)c5)c(Cl)c4)c3C2)n1` displayed an IC50 of 830 nM.
Under `c1ccc(-c2nc3ccccc3[nH]2)c(Nc2ccnc3cc(-c4nccs4)ccc23)c1` stands 740 nM.
For `O=C(NCC1CCC1)c1cnc(Nc2cccc(Cl)c2)nc1N1CCC1` the value was 860 nM; for `O=C(CCN(Cc1ccco1)c1nc(-c2ccc(F)cc2)nc2ccccc12)NC1CC1`, 1580 nM; for `CCCCc1ccc(-c2ccc3[nH]c(C)c(Br)c(=O)c3c2)cc1`, 110 nM.
Under `CC1(CCc2ccccc2)N=C(Nc2ccc(Cl)cc2)N=C(N)C1c1ccc(Cl)c(Cl)c1` (configuration not stated) stands 220 nM; under `CCCNCc1ccc(-c2ccc(CN(Cc3cnc(C)cn3)C(=O)/C=C/c3ccccc3C)cc2)nc1`, 920 nM; under `CSc1ccc(C=CC(=O)NC(=O)c2ccccc2O)cc1`, 290 nM.
Turning to `O=C(/C=C/c1ccc(Cl)c(Cl)c1)NCCCCCN1CCC(NC(=O)Nc2ccccc2Cl)CC1`, the IC50 stood at 710 nM.
Under `COc1cc(Cc2cnc(N)nc2N)ccc1OCc1ccc(NC(C)=O)cc1` stands 370 nM; under `Clc1ccc(-c2cc(-c3csc(NCCN4CCCCC4)n3)on2)cc1`, 990 nM; under `CCc1ccccc1N=C1c2c(cccc2[N+](=O)[O-])C(=O)C1C(C)=O` (configuration not stated), 90 nM.
For `Cn1ccnc1S(=O)(=O)CCNCc1ccc(-c2ccc3ncnc(Nc4ccc(OCc5cccc(F)c5)c(Cl)c4)c3c2)o1` the value was 700 nM.
Turning to `CS(=O)(=O)c1ccc(CNCc2ccc(-c3ccc(-c4nc5ccc(C(F)(F)F)cc5[nH]4)cc3)cc2)cc1`, the IC50 was 710 nM.
Compound `O=C(NCCN1CCOCC1)c1ccc(N2CCC(Oc3ccc4ccccc4c3)CC2)nc1` yielded an IC50 of 760 nM.
For `COc1cccc2c(NCc3ccccc3)nc(NCCCN3CCCCC3C)nc12` (configuration not stated) the value was 910 nM; for `COc1cc2nc(N3CCC(CNC(=O)c4ccc(-c5ccc(C(=O)N(C)C)cc5O)cc4)CC3)nc(N)c2cc1OC`, 280 nM; for `COc1cccc2cc(C(=O)N[C@@H](CC(C)C)C(=O)N[C@H](/C=N/N(C)C(=O)OC(C)(C)C)Cc3ccccc3)oc12`, 260 nM.
Compound `Cc1ccc(CNC(=O)[C@H](Cc2ccccc2)Nc2cc(C)nc(Nc3ccccc3)n2)cc1` gave an IC50 of 850 nM.
Under `CCCNc1ccc2nccc(CCN3CCC(NCc4ccc5c(c4)NC(=O)CS5)CC3)c2n1` stands 580 nM; under `CCOc1cc(Cc2cnc(N)nc2N)cc(OC)c1OC`, 910 nM.
Under `O=c1[nH]c(NCCCNCc2cc3c(Cl)cc(Cl)cc3[nH]2)nc2ccccc12` stands 990 nM; under `O=C(Cn1c(=O)cnc2ccccc21)Nc1cccc(C(=O)Nc2cccc(C(F)(F)F)c2)c1`, 280 nM; under `FC(F)(F)c1ccc2nccc(NN=Cc3cccc(Cl)c3)c2c1`, 820 nM.
In turn, `O=C(Nc1ccc(OC2CCN(Cc3ccc(F)cc3)C2)cc1)c1ccco1` (configuration not stated) yielded an IC50 of 1040 nM.
Under `Cc1cccc2[nH]c(-c3ccc(-c4cccc(NC(=O)NCc5ccccc5)c4)cc3)nc12` stands 780 nM; under `Cc1cccc2[nH]c(-c3cccc(-c4ccc(NC(=O)c5ccc(=O)[nH]n5)cc4)c3)nc12`, 860 nM.
Regarding `NC(N)=Nc1nc(-c2cccc(NC(=O)C(F)(F)F)c2)cs1`, the IC50 stood at 1050 nM.
In turn, `CC[C@H](C)CNC(=O)c1cncc(-c2ccc(CNCCOc3ccccc3)cc2)c1` returned an IC50 of 1110 nM.
Under `CCN(CCCN1CCCCC1)c1cc(C)nc(Nc2ccc(C)cc2C)n1` stands 350 nM; under `Fc1ccc2nc(-c3ccc(-c4ccc(CNCCc5ccncc5)cc4)s3)[nH]c2c1`, 140 nM; under `O=C(NCC1CCN(Cc2ccc(F)cc2)C1)c1cc(-c2cccc(C(F)(F)F)c2)cs1` (configuration not stated), 960 nM.
For `COc1ccc2nccc(N3C[C@H]4C[C@@H]3CN4CCNCc3ccc4c(n3)NC(=O)CS4)c2n1` the value was 970 nM.
For `CCOc1cc(Cc2cnc(N)nc2N)ccc1OC` the value was 1250 nM.

Values taken from PubChem BioAssay AID2305 (GlaxoSmithKline (GSK), 2010).
